12 molecules from PubChem BioAssay (NCI) can be followed below.

Each structure is given as a SMILES string.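 Interpolation was linear, between the two tested concentrations surrounding the appropriate level; five concentrations were tested over 48 hours in 96-well plates. The concentration for full growth arrest is given as TGI.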

Test systems include K-562 leukemia; SR leukemia; SK-OV-3 ovarian; ACHN renal; MALME-3M melanoma; M14 melanoma; UACC-257 melanoma; HT29 colon; MOLT-4 leukemia; OVCAR-3 ovarian; SN12C renal.
Holding throughout (assay): NCI-60 cell line screen, 48 h

For the molecule `CC1C=C(CCCCCCCCCCCC[C@@H](O)[C@@H]2CC[C@@H]([C@@H]3CC[C@@H](C(O)CCCCCCCCCCCCC4=C[C@H](C)OC4=O)O3)O2)C(=O)O1` (some centres not stated), the TGI in the test on K-562 leukemia was greater than 100 µM; with SR leukemia it was greater than 55 µM; in the test on SK-OV-3 ovarian it was greater than 100 µM; in the test on ACHN renal, greater than 100 µM; with MALME-3M melanoma, greater than 100 µM; in the test on M14 melanoma it was greater than 100 µM. Further, the TGI in the test on UACC-257 melanoma, in the test with HT29 colon, in the test on MOLT-4 leukemia, in the test with OVCAR-3 ovarian and in the test on SN12C renal was greater than 100 µM each time.

Consider `Brc1ccc(N=c2nc3ccccn3n3nc(-c4ccccc4)cc23)cc1`, for which the TGI in the test on K-562 leukemia is greater than 100 µM; with SR leukemia it was greater than 100 µM; in the test with SK-OV-3 ovarian it was greater than 100 µM; in the test with ACHN renal it was greater than 100 µM; in the test on MALME-3M melanoma it was 26.7 µM; in the test on M14 melanoma, 33 µM. Moreover, the TGI in the test with UACC-257 melanoma was greater than 100 µM; with HT29 colon, greater than 100 µM; with MOLT-4 leukemia it was greater than 100 µM; in the test on OVCAR-3 ovarian, 72.1 µM; in the test with SN12C renal, greater than 100 µM.

On to `CNC(=O)OCC1=C(COC(=O)NC)C(C)N(c2ccc(OC)cc2)C1` (configuration not stated), for which the TGI in the test on K-562 leukemia was greater than 100 µM; with SR leukemia, 93.8 µM; with SK-OV-3 ovarian, greater than 100 µM; in the test on ACHN renal, greater than 100 µM; in the test with MALME-3M melanoma it was greater than 100 µM; with M14 melanoma, greater than 100 µM. For the same molecule, the TGI in the test with UACC-257 melanoma, with HT29 colon, in the test on MOLT-4 leukemia, in the test on OVCAR-3 ovarian and with SN12C renal was greater than 100 µM throughout.

`CCOC(=O)Nn1c(C)nnc1-c1ccccc1`: the TGI with K-562 leukemia, in the test on SR leukemia, in the test with SK-OV-3 ovarian, with ACHN renal, with MALME-3M melanoma and with M14 melanoma was greater than 100 µM each time. In addition, the TGI with UACC-257 melanoma, with HT29 colon, in the test on MOLT-4 leukemia, in the test with OVCAR-3 ovarian and with SN12C renal was greater than 100 µM in each case.

Take `CC(C)/C(Cl)=N\OC(=O)Nc1ccc(S(N)(=O)=O)cc1`: the TGI is 5.52 µM with K-562 leukemia; 5.17 µM in the test on SR leukemia; 31.5 µM in the test with SK-OV-3 ovarian; 26.8 µM in the test with ACHN renal; 10.1 µM in the test on MALME-3M melanoma; 22.1 µM in the test on M14 melanoma. Moreover, the TGI with UACC-257 melanoma amounted to 32.4 µM; in the test on HT29 colon, 48.4 µM; in the test on MOLT-4 leukemia, 5.42 µM; in the test with OVCAR-3 ovarian, 28.2 µM; in the test with SN12C renal it was 29.2 µM.

Take `C[C@@]12C[C@@H](c3ccccc3O1)N1CCCCSC1=N2`: the TGI with K-562 leukemia, in the test with SR leukemia, in the test with SK-OV-3 ovarian, in the test with ACHN renal, in the test on MALME-3M melanoma and in the test on M14 melanoma was greater than 100 µM in each case. The TGI in the test with UACC-257 melanoma, in the test with HT29 colon, in the test on MOLT-4 leukemia, in the test on OVCAR-3 ovarian and in the test on SN12C renal was greater than 100 µM each time.

On to `N=c1n(C(=O)N2CCCC2)c2cc(Cl)ccc2n1C1=NCCN1`, for which the TGI in the test with K-562 leukemia, with SR leukemia, with SK-OV-3 ovarian, in the test on ACHN renal, in the test on MALME-3M melanoma and in the test on M14 melanoma was greater than 100 µM throughout. For the same molecule, the TGI in the test on UACC-257 melanoma, with HT29 colon, in the test on MOLT-4 leukemia, with OVCAR-3 ovarian and in the test on SN12C renal was greater than 100 µM each time.

In the case of `N#CC1=C(N)N(c2ccccc2)C(c2ccco2)C1(C#N)C#N` (configuration not stated), the TGI in the test on K-562 leukemia was 37.5 µM; in the test with SR leukemia, 51.1 µM; in the test with SK-OV-3 ovarian, greater than 100 µM; with ACHN renal it was 32 µM; with MALME-3M melanoma, 52.8 µM; with M14 melanoma, 43.4 µM. Moreover, the TGI is 37.2 µM in the test with UACC-257 melanoma; 37.1 µM with HT29 colon; 71 µM in the test with MOLT-4 leukemia; 56.7 µM in the test with OVCAR-3 ovarian; greater than 100 µM in the test with SN12C renal.

`CCC12C=CCN3CCC4(C(=C(C(=O)OC)[C@@H]1O)Nc1ccccc14)C32` (some centres not stated): the TGI in the test with K-562 leukemia was greater than 26.9 µM; in the test with SR leukemia it was 4.58 µM; in the test on SK-OV-3 ovarian, 6.2 µM; in the test on ACHN renal, 3.3 µM; in the test on MALME-3M melanoma, 3.43 µM; in the test on M14 melanoma it was 5.54 µM. The TGI is 3.42 µM with UACC-257 melanoma; 3.76 µM in the test on HT29 colon; 11.7 µM with MOLT-4 leukemia; 3.89 µM with OVCAR-3 ovarian; 5.71 µM in the test on SN12C renal.

`CC(=O)Nc1ccc(-c2nnc(SCC(=O)Nc3ccc([N+](=O)[O-])cc3)o2)cc1`: the TGI in the test with K-562 leukemia is greater than 100 µM; in the test with SR leukemia it was greater than 100 µM; in the test on SK-OV-3 ovarian, 35.9 µM; in the test with ACHN renal, 28.7 µM; in the test on MALME-3M melanoma it was 27 µM; in the test with M14 melanoma, 26.9 µM. Besides, the TGI in the test with UACC-257 melanoma is 24.7 µM; in the test with HT29 colon, 27.3 µM; in the test on MOLT-4 leukemia, greater than 100 µM; in the test with OVCAR-3 ovarian, 28.1 µM; in the test on SN12C renal, 29.8 µM.

`O=[N+]([O-])/C(C(Cl)=C(Cl)Cl)=C(\SCc1ccccc1)N1CCCCC1`: the TGI was greater than 100 µM in the test on K-562 leukemia; greater than 100 µM in the test with SR leukemia; greater than 100 µM with SK-OV-3 ovarian; 37.6 µM in the test on ACHN renal; 27.1 µM in the test with MALME-3M melanoma; 45.6 µM in the test with M14 melanoma. Moreover, the TGI with UACC-257 melanoma stood at 77.2 µM; in the test on HT29 colon, 82.4 µM; in the test with MOLT-4 leukemia, 41.1 µM; in the test with OVCAR-3 ovarian, 34.6 µM; with SN12C renal it was 47.6 µM.

Regarding `COc1cc([C@@H]2c3cc4c(cc3[C@@H](Nc3ccc([N+](=O)[O-])cc3C(=O)c3ccccc3)[C@H]3COC(=O)[C@H]23)OCO4)cc(OC)c1OC`, the TGI in the test with K-562 leukemia, in the test on SR leukemia, in the test with SK-OV-3 ovarian, in the test with ACHN renal, in the test with MALME-3M melanoma and with M14 melanoma was greater than 100 µM throughout. Further, the TGI in the test on UACC-257 melanoma, in the test with HT29 colon, with MOLT-4 leukemia, in the test on OVCAR-3 ovarian and with SN12C renal was greater than 100 µM each time.
